Reference: patent US11952377B2, “Quinolines and azaquinolines as inhibitors of CD38” (BOEHRINGER INGELHEIM INTERNATIONAL GMBH, priority 2021, dated 2024)

Target: Human CD38 (Homo sapiens (Human), UniProt P28907)
Test: CD38 enzyme assay
Format: biochemical
Settings: 2 nM CD38, 30 min preincubation at 25° C., absorbance at 405 nm after 60 minutes
From the text: [formula] where CMPD is the value for the individual compound treated well, MIN is the average of the values of the 4-(((1r,4r)-4-(2-methoxyethoxy)cyclohexyl)amino)-1-methyl-6-(thiazol-5-yl)quinolin-2(1H)-one positive control wells and MAX is the average of the values of the DMSO negative control wells.
The % inhibition values were plotted as a function of compound concentration and the following 4-parameter fit was applied to derive the IC50 values:
[formula] where top and bottom are normally allowed to float, but may be fixed at 100 or 0 respectively in a 3-parameter fit. The Hill Coefficient is normally allowed to float but may also be fixed at 1 in a 3-parameter fit. Y is the % inhibition and X is the compound concentration.

Sequence of Human CD38 (P28907 whole entry): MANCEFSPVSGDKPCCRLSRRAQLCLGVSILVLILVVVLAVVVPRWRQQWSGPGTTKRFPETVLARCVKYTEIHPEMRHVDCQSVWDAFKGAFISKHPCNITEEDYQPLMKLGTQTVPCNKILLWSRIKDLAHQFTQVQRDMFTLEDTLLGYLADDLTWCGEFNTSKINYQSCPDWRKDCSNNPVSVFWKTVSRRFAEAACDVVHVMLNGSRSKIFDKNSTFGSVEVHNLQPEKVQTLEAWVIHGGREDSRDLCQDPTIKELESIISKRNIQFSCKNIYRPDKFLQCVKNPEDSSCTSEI

| SMILES | IC50 [nM] |
| --- | --- |
| COCCO[C@H]1CC[C@H](Nc2cc(=O)n(C)c3ccc(-n4ccnc4)nc23)CC1 [Example 3, 6-(1H-imidazol-1-yl)-4-(((1r,4r)-4-(2-methoxyethoxy)cyclohexyl)amino)-1-methyl-1,5-naphthyridin-2(1H)-one] | 10 to 100 |
| Cn1c(=O)cc(N[C@H]2CC[C@H](C(C)(C)O)CC2)c2nc(-n3ccnc3)ccc21 [Example 4, 4-(((1r,4r)-4-(2-hydroxypropan-2-yl)cyclohexyl)amino)-6-(1H-imidazol-1-yl)-1-methyl-1,5-naphthyridin-2(1H)-one] | 10 to 100 |
| Cn1c(=O)cc(N[C@H]2CC[C@H](C(C)(C)O)CC2)c2cc(-n3ccnc3)ncc21 [Example 5, 4-(((1r,4r)-4-(2-hydroxypropan-2-yl)cyclohexyl)amino)-6-(1H-imidazol-1-yl)-1-methyl-1,7-naphthyridin-2(1H)-one] | 10 to 100 |
| COCCO[C@H]1CC[C@H](Nc2cc(=O)n(C)c3cnc(-n4ccnc4)nc23)CC1 [Example 7, 2-(1H-imidazol-1-yl)-8-(((1r,4r)-4-(2-methoxyethoxy)cyclohexyl)amino)-5-methylpyrido[3,2-d]pyrimidin-6(5H)-one] | 10 to 100 |
| Cn1c(=O)cc(N[C@H]2CC[C@H](C(C)(C)O)CC2)c2nc(-n3ccnc3)ncc21 [Example 8, 8-(((1r,4r)-4-(2-hydroxypropan-2-yl)cyclohexyl)amino)-2-(1H-imidazol-1-yl)-5-methylpyrido[3,2-d]pyrimidin-6(5H)-one] | < 10 |
| Cn1c(=O)cc(Nc2ccc(C(F)(F)F)cc2)c2nc(-n3ccnc3)ncc21 [Example 9, 2-(1H-imidazol-1-yl)-5-methyl-8-((4-(trifluoromethyl)phenyl)amino)pyrido[3,2-d]pyrimidin-6(5H)-one] | < 10 |
| Cn1c(=O)cc(Nc2ccc(OCCN3CCOCC3)nc2)c2nc(-n3ccnc3)ncc21 [Example 10, 2-(1H-imidazol-1-yl)-5-methyl-8-((6-(2-morpholinoethoxy)pyridin-3-yl)amino)pyrido[3,2-d]pyrimidin-6(5H)-one] | 10 to 100 |
| Cn1c(=O)cc(NC2CCN(S(C)(=O)=O)CC2)c2cc(-n3ccnc3)ccc21 [Example 13] | 10 to 100 |
| Cn1c(=O)cc(Nc2ccc(OCC(F)(F)F)nc2)c2cc(-n3ccnc3)ccc21 [Example 15, 6-(1H-imidazol-1-yl)-1-methyl-4-((6-(2,2,2-trifluoroethoxy)pyridin-3-yl)amino)quinolin-2(1H)-one] | 10 to 100 |
| CN(C)CCOc1ccc(Nc2cc(=O)n(C)c3ccc(-n4ccnc4)cc23)cn1 [Example 17, 4-((6-(2-(dimethylamino)ethoxy)pyridin-3-yl)amino)-6-(1H-imidazol-1-yl)-1-methylquinolin-2(1H)-one] | 10 to 100 |
| Cn1c(=O)cc(N[C@H]2CC[C@H](NCC(C)(F)F)CC2)c2nc(-n3ccnc3)ncc21 [Example 19, 8-(((1r,4r)-4-((2,2-difluoropropyl)amino)cyclohexyl)amino)-2-(1H-imidazol-1-yl)-5-methylpyrido[3,2-d]pyrimidin-6(5H)-one] | < 10 |
| Cn1c(=O)cc(Nc2ccc(C#N)cc2)c2nc(-n3ccnc3)ncc21 [Example 22, 4-((2-(1H-imidazol-1-yl)-5-methyl-6-oxo-5,6-dihydropyrido[3,2-d]pyrimidin-8-yl)amino)benzonitrile] | < 10 |
| Cn1c(=O)cc(N[C@H]2CC[C@H](NCC(F)(F)F)CC2)c2nc(-n3ccnc3)ncc21 [Example 23, 2-(1H-imidazol-1-yl)-5-methyl-8-(((1r,4r)-4-((2,2,2-trifluoroethyl)amino)cyclohexyl)amino)pyrido[3,2-d]pyrimidin-6(5H)-one] | < 10 |
| CO[C@H]1CC[C@H](Nc2cc(=O)n(C)c3cnc(-n4ccnc4)nc23)CC1 [Example 24, 2-(1H-imidazol-1-yl)-8-(((1r,4r)-4-methoxycyclohexyl)amino)-5-methylpyrido[3,2-d]pyrimidin-6(5H)-one] | < 10 |
| Cn1c(=O)cc(Nc2ccc(OCCN3CCCC3)nc2)c2nc(-n3ccnc3)ncc21 [Example 25] | 10 to 100 |
| Cn1c(=O)cc(NC2CCC(F)(F)CC2)c2nc(-n3ccnc3)ncc21 [Example 26, 8-((4,4-difluorocyclohexyl)amino)-2-(1H-imidazol-1-yl)-5-methylpyrido[3,2-d]pyrimidin-6(5H)-one] | < 10 |
| Cn1c(=O)cc(N[C@H]2CC[C@H](C3(O)CC3)CC2)c2nc(-n3ccnc3)ncc21 [Example 27, 8-(((1r,4r)-4-(1-hydroxycyclopropyl)cyclohexyl)amino)-2-(1H-imidazol-1-yl)-5-methylpyrido[3,2-d]pyrimidin-6(5H)-one] | < 10 |

Second part, the molecule after the results:

| IC50 [nM] | SMILES |
| --- | --- |
| 10 to 100 | COCCO[C@H]1CC[C@H](Nc2cc(=O)n(C)c3ccc(-n4ccnc4)cc23)CC1 [Example 1, 6-(1H-imidazol-1-yl)-4-(((1r,4r)-4-(2-methoxyethoxy)cyclohexyl)amino)-1-methylquinolin-2(1H)-one] |
| 10 to 100 | Cn1c(=O)cc(N[C@H]2CC[C@H](NC3COC3)CC2)c2cc(-n3ccnc3)ccc21 [Example 2, 6-(1H-imidazol-1-yl)-1-methyl-4-(((1r,4r)-4-(oxetan-3-ylamino)cyclohexyl)amino)quinolin-2(1H)-one] |
| 10 to 100 | COCCO[C@H]1CC[C@H](Nc2cc(=O)n(C)c3cnc(-n4ccnc4)cc23)CC1 [Example 6, 6-(1H-imidazol-1-yl)-4-(((1r,4r)-4-(2-methoxyethoxy)cyclohexyl)amino)-1-methyl-1,7-naphthyridin-2(1H)-one] |
| 10 to 100 | Cn1c(=O)cc(N[C@H]2CC[C@H](NCC(F)(F)F)CC2)c2cc(-n3ccnc3)ccc21 [Example 11, 6-(1H-imidazol-1-yl)-1-methyl-4-(((1r,4r)-4-((2,2,2-trifluoroethyl)amino)cyclohexyl)amino)quinolin-2(1H)-one] |
| 10 to 100 | Cn1c(=O)cc(N[C@H]2CC[C@H](C(C)(C)O)CC2)c2cc(-n3ccnc3)ccc21 [Example 12, 4-(((1r,4r)-4-(2-hydroxypropan-2-yl)cyclohexyl)amino)-6-(1H-imidazol-1-yl)-1-methylquinolin-2(1H)-one] |
| 10 to 100 | CN(C)C(=O)CO[C@H]1CC[C@H](Nc2cc(=O)n(C)c3ccc(-n4ccnc4)cc23)CC1 [Example 14, 2-(((1r,4r)-4-((6-(1H-imidazol-1-yl)-1-methyl-2-oxo-1,2-dihydroquinolin-4-yl)amino)cyclohexyl)oxy)-N,N-dimethylacetamide] |
| 10 to 100 | Cn1c(=O)cc(N[C@H]2CC[C@H](OCCN3CCCC3)CC2)c2cc(-n3ccnc3)ccc21 [Example 18, 6-(1H-imidazol-1-yl)-1-methyl-4-(((1r,4r)-4-(2-(pyrrolidin-1-yl)ethoxy)cyclohexyl)amino)quinolin-2(1H)-one] |
| 10 to 100 | CN(C)C(=O)CO[C@H]1CC[C@H](Nc2cc(=O)n(C)c3cnc(-n4ccnc4)nc23)CC1 [Example 21, 2-(((1r,4r)-4-((2-(1H-imidazol-1-yl)-5-methyl-6-oxo-5,6-dihydropyrido[3,2-d]pyrimidin-8-yl)amino)cyclohexyl)oxy)-N,N-dimethylacetamide] |
